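Grown in 96-well plates, cells were treated for 48 hours with each compound at five concentrations. Insufficient inhibition: endpoint recorded as highest concentration tested. Abbreviation: GI50, concentration required for 50% inhibition of growth. TGI: total growth inhibition.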
Tests used:
Assay in all cases: NCI-60 cell line screen, 48 h
CCRF-CEM leukemia = system: CCRF-CEM leukemia
HCT-116 colon = system: HCT-116 colon
MALME-3M melanoma = system: MALME-3M melanoma
NCI-H226 lung = system: NCI-H226 lung
OVCAR-8 ovarian = system: OVCAR-8 ovarian
SF-268 CNS = system: SF-268 CNS
CAKI-1 renal = system: CAKI-1 renal
HOP-92 NSCLC = system: HOP-92 NSCLC
M14 melanoma = system: M14 melanoma
UACC-62 melanoma = system: UACC-62 melanoma

Compound | TGI (CCRF-CEM leukemia) | TGI (HCT-116 colon) | TGI (MALME-3M melanoma) | TGI (NCI-H226 lung) | TGI (OVCAR-8 ovarian) | TGI (SF-268 CNS) | TGI (CAKI-1 renal) | TGI (HOP-92 NSCLC) | TGI (M14 melanoma) | TGI (UACC-62 melanoma) | GI50 (CCRF-CEM leukemia) | GI50 (HCT-116 colon) | GI50 (HOP-92 NSCLC) | GI50 (M14 melanoma) | GI50 (MALME-3M melanoma) | GI50 (NCI-H226 lung) | GI50 (OVCAR-8 ovarian) | GI50 (SF-268 CNS) | GI50 (UACC-62 melanoma) | GI50 (CAKI-1 renal)
Cc1ccc([N+]2=NC(c3ccccc3)=NN(c3ccccc3)C2)cc1 | 79.9 µM | > 100 µM | > 100 µM | > 100 µM | > 100 µM | > 100 µM | – | – | – | – | – | – | – | – | – | – | – | – | – | –
N#C/C(=C1\OC(N)=C(c2ccc(Cl)cc2)C1=O)c1ccc(Cl)cc1 | 73.5 µM | 32.4 µM | 34.3 µM | – | 26.3 µM | > 100 µM | 34.1 µM | 32.2 µM | 29.8 µM | 27.5 µM | – | – | – | – | – | – | – | – | – | –
O/N=C1\C(=C\c2ccc3c(c2)OCCO3)CCCC1C(NO)c1ccc2c(c1)OCCO2 (stereo not drawn) | 48.9 µM | 40.4 µM | 63.7 µM | – | > 100 µM | 32 µM | > 100 µM | 93.4 µM | 34.4 µM | 31.7 µM | – | – | – | – | – | – | – | – | – | –
C[C@H]1CCC2C(OC(=O)[C@@H]2CN(C)C)[C@]2(C)C(=O)C=CC12O (stereo partly drawn) | 9.22 µM | 12.5 µM | 16.7 µM | > 38.1 µM | – | 28.6 µM | 24.2 µM | 8.03 µM | 14.8 µM | 9.32 µM | – | – | – | – | – | – | – | – | – | –
COc1ccc(/C=C2/CSC/C(=C/c3ccc(OC)c(OC)c3)C2=O)cc1OC | – | 2.28 µM | 12.2 µM | 7.15 µM | 2.19 µM | 18.4 µM | 12.8 µM | 43.7 µM | 10.5 µM | 3.32 µM | – | – | – | – | – | – | – | – | – | –
Cc1nc(-n2nc(-c3ccccc3)cc2-c2ccccc2)sc1C(=O)/C=C/c1cccc([N+](=O)[O-])c1 | 44.4 µM | – | 41.1 µM | – | > 100 µM | 31.2 µM | 49.6 µM | 51.1 µM | – | 27.5 µM | – | – | – | – | – | – | – | – | – | –
CCN1CCC(O)(/C=C/c2ccccc2)C(C(=O)/C=C/c2ccccc2)C1 (stereo not drawn) | – | 3.08 µM | 5.09 µM | 9.93 µM | 4.55 µM | 7.36 µM | 6.44 µM | 8.76 µM | 4.13 µM | 3.49 µM | – | – | – | – | – | – | – | – | – | –
C=Cc1cc(OC)c2c(c1)c(=O)oc1c2cc(OC)c2c(O)ccc(C3OC(C(C)O)C(O)C3O)c21 (stereo not drawn) | 0.0312 µM | 0.205 µM | 0.0366 µM | 0.099 µM | 0.212 µM | 0.117 µM | – | 0.3 µM | 0.0302 µM | 0.0296 µM | 0.00245 µM | 0.00298 µM | 0.0126 µM | 0.011 µM | 0.0107 µM | 0.023 µM | 0.0114 µM | 0.00456 µM | 0.0112 µM | –
CCSc1nc(N)c2cnn(CC)c2n1 | 10.8 µM | 32.8 µM | 59 µM | 30.9 µM | 19.4 µM | 66.7 µM | 56.3 µM | – | 30.5 µM | 24.5 µM | 3.58 µM | 5.94 µM | – | 15.1 µM | 18 µM | 3.41 µM | 3.21 µM | 23.3 µM | 4.8 µM | 4.63 µM
C#C[C@@H](CCCC)OC(=O)N[C@H](C)c1ccccc1 | > 100 µM | > 100 µM | – | 82 µM | > 100 µM | – | > 100 µM | – | > 100 µM | > 100 µM | – | – | – | – | – | – | – | – | – | –
CC(=O)OC1=C(CC(C)(C)C)C(=O)c2ccccc2C1=O | 55.6 µM | 75.5 µM | – | > 100 µM | > 100 µM | 74.9 µM | > 100 µM | – | > 100 µM | > 100 µM | – | – | – | – | – | – | – | – | – | –
O=C(N/N=C/c1ccc(N(CCCl)CCCl)cc1)c1ccc(C(=O)N/N=C/c2ccc(N(CCCl)CCCl)cc2)cc1 | > 100 µM | > 100 µM | > 100 µM | > 100 µM | > 100 µM | 27.8 µM | > 100 µM | 88.3 µM | > 100 µM | – | 0.0349 µM | 2.48 µM | 4.98 µM | 3.79 µM | 11.2 µM | 57.4 µM | 12.9 µM | 0.284 µM | – | 72.3 µM
C=C(CN1CCN(c2ccc(F)c(Cl)c2)CC1)c1ccc(C(=O)Nc2ccccc2N)cc1 | – | 10.3 µM | 37.2 µM | 55.3 µM | > 100 µM | > 100 µM | 77.8 µM | 11.6 µM | 11.6 µM | 54.3 µM | – | 3.08 µM | 2.15 µM | 2.65 µM | 4.35 µM | 9.12 µM | 5.42 µM | 4.35 µM | 5.24 µM | 4.12 µM
Nc1ccn(C2CC3OCC3O2)c(=O)n1 (stereo not drawn) | > 100 µM | > 100 µM | – | > 100 µM | > 100 µM | > 100 µM | > 100 µM | – | > 100 µM | > 100 µM | – | – | – | – | – | – | – | – | – | –
Cc1cn2cc(-c3ccc4c(c3)CC(=O)N4)nc2s1 | > 100 µM | > 100 µM | > 100 µM | > 100 µM | > 100 µM | – | > 100 µM | > 100 µM | > 100 µM | > 100 µM | > 100 µM | 70.1 µM | > 100 µM | > 100 µM | > 100 µM | > 100 µM | > 100 µM | – | 33.7 µM | > 100 µM
CCOC(=O)CC(C)C1(C=O)CCCCC1=O (stereo not drawn) | > 100 µM | > 100 µM | > 100 µM | > 100 µM | > 100 µM | > 100 µM | > 100 µM | – | > 100 µM | > 100 µM | – | – | – | – | – | – | – | – | – | –
CN(C)Cc1cc(C(C)(C)C)cc(CN(C)C)c1O | > 100 µM | > 100 µM | > 100 µM | – | > 100 µM | > 100 µM | > 100 µM | > 100 µM | > 100 µM | > 100 µM | – | – | – | – | – | – | – | – | – | –
Oc1ccc(O)c(-n2cccn2)c1-n1cccn1 | > 10 µM | – | > 100 µM | – | > 100 µM | > 100 µM | > 100 µM | > 100 µM | > 100 µM | > 100 µM | – | – | – | – | – | – | – | – | – | –
C=CCCC(=O)CC(=O)OCc1ccccc1 | > 100 µM | > 100 µM | > 100 µM | – | > 100 µM | > 100 µM | > 100 µM | > 100 µM | > 100 µM | > 100 µM | – | – | – | – | – | – | – | – | – | –
COC1CC(n2cc(F)c(N)nc2=O)OC1CO (stereo not drawn) | > 100 µM | – | > 100 µM | > 100 µM | > 100 µM | > 100 µM | > 100 µM | > 100 µM | > 100 µM | – | – | – | – | – | – | – | – | – | – | –
O=[N+]([O-])c1ccc2nc(-c3ccc(Cl)cc3)[nH]c2c1 | – | 32 µM | 63 µM | 58 µM | > 100 µM | 37.5 µM | 93.9 µM | 64.2 µM | 34.5 µM | 42 µM | – | – | – | – | – | – | – | – | – | –

From PubChem BioAssay (NCI)
